From ChEMBL document CHEMBL5303304, “EUbOPEN Chemogenomics Library - IncuCyte” (2023)

How the values were obtained:
Type in all cases: toxicity, cell-based
HEK-293T = experiment: Incucyte cell viability with HEK293T; settings: human, 10 µM, compound concentration 10 uM
Fibroblast = experiment: Incucyte cell viability with human fibroblast; settings: 10 µM, compound concentration 10 uM
U2OS = experiment: Incucyte cell viability with U2OS; settings: human, 10 µM, compound concentration 10 uM
Further: unitless GR value; below 1 slowed growth and below 0 cell loss.

SMILES	Growth Rate (HEK-293T; 0 h, replicate number 2)	Growth Rate (HEK-293T; 6 h, replicate number 1)	Growth Rate (HEK-293T; 6 h, replicate number 2)	Growth Rate (HEK-293T; 12 h, replicate number 2)	Growth Rate (HEK-293T; 18 h, replicate number 1)	Growth Rate (HEK-293T; 18 h, replicate number 2)	Growth Rate (HEK-293T; 24 h, replicate number 1)	Growth Rate (HEK-293T; 24 h, replicate number 2)	Growth Rate (Fibroblast; 0 h, replicate number 2)	Growth Rate (Fibroblast; 12 h, replicate number 1)	Growth Rate (Fibroblast; 24 h, replicate number 1)	Growth Rate (U2OS; 6 h, replicate number 2)	Growth Rate (U2OS; 12 h, replicate number 1)	Growth Rate (U2OS; 12 h, replicate number 2)	Growth Rate (U2OS; 18 h, replicate number 1)	Growth Rate (U2OS; 18 h, replicate number 2)	Growth Rate (U2OS; 24 h, replicate number 1)	Growth Rate (U2OS; 24 h, replicate number 2)	Growth Rate (HEK-293T; 0 h, replicate number 1)	Growth Rate (Fibroblast; 6 h, replicate number 2)	other results
CN(C)CCCN1c2ccccc2Sc2ccc(Cl)cc21.Cl [CHLORPROMAZINE HYDROCHLORIDE]	-0.89	0.64	0.48	0.52	0.18	0.37	0.15	0.19	0.33	-0.38	-0.22	-0.06	0.42	0.12	0.77	0.33	0.91	0.39			Growth Rate (HEK-293T; 12 h, replicate number 1): 0.66; Growth Rate (Fibroblast; 6 h, replicate number 1): -0.57; Growth Rate (Fibroblast; 18 h, replicate number 1): -0.35; Growth Rate (U2OS; 0 h, replicate number 1): -0.42; Growth Rate (U2OS; 0 h, replicate number 2): -0.21
C[C@H](CCC(=O)O)[C@H]1CC[C@H]2[C@@H]3[C@H](O)C[C@@H]4C[C@H](O)CC[C@]4(C)[C@H]3C[C@H](O)[C@]12C [CHOLIC ACID]	0.01							1		0.82	0.81	0.92		0.92	0.98			0.97	0.14	0.33	Growth Rate (Fibroblast; 0 h, replicate number 1): 0.6; Growth Rate (Fibroblast; 6 h, replicate number 1): -0.41; Growth Rate (Fibroblast; 12 h, replicate number 2): 0.56; Growth Rate (Fibroblast; 18 h, replicate number 1): 0.38; Growth Rate (Fibroblast; 18 h, replicate number 2): 0.65; Growth Rate (Fibroblast; 24 h, replicate number 2): 0.97; Growth Rate (U2OS; 0 h, replicate number 2): 0.9
Cc1nnc2ccc(-c3cccc(C(F)(F)F)c3)nn12 [CI-218872]	0.45			0.87		0.95		0.99		-1		0.83	0.88		0.84	0.97			0.97	-1	Growth Rate (Fibroblast; 6 h, replicate number 1): 0.38; Growth Rate (Fibroblast; 12 h, replicate number 2): 0.98; Growth Rate (U2OS; 6 h, replicate number 1): 0.76
CC1(C)C[C@@H]1C(=O)N/C(=C\CCCCSC[C@H](N)C(=O)O)C(=O)O [CILASTATIN]	0.73	0.74	0.55	0.9					-0.91			0.81	0.97	0.74	0.9	0.82	0.9	0.79	-0.01	0.61	Growth Rate (Fibroblast; 24 h, replicate number 2): 0.83; Growth Rate (U2OS; 0 h, replicate number 2): 0.88
O=C(O)c1ccnc(N2CC(O)(c3ccc(OCc4c(-c5c(Cl)cccc5Cl)noc4C4CC4)cc3Cl)C2)c1 [CILOFEXOR]	0.73		0.54	0.68		0.85	0.89	1						1					0.8	-0.03	Growth Rate (Fibroblast; 18 h, replicate number 1): 0.87; Growth Rate (Fibroblast; 24 h, replicate number 2): 0.8
CC(C)(C[C@H]1CN(S(=O)(=O)c2cccc(C(F)(F)F)c2)c2cc(-c3cc(F)cc(OC(F)F)c3)ccc2O1)C(=O)O [CINTIRORGON]	-0.41	0.88	0.81	0.88		0.9			0.71	0.59	0.29		0.81		0.78				1	0.8	Growth Rate (Fibroblast; 6 h, replicate number 1): -0.68; Growth Rate (Fibroblast; 12 h, replicate number 2): 0.54; Growth Rate (Fibroblast; 18 h, replicate number 1): 0.49; Growth Rate (Fibroblast; 18 h, replicate number 2): 0.81; Growth Rate (Fibroblast; 24 h, replicate number 2): 0.69; Growth Rate (U2OS; 0 h, replicate number 1): 0.78
CCC(=O)O[C@]1(C(=O)CCl)[C@@H](C)C[C@H]2[C@@H]3CCC4=CC(=O)C=C[C@]4(C)[C@@]3(F)[C@@H](O)C[C@@]21C [CLOBETASOL PROPIONATE]		0.7	1							-1		0.94	0.77	0.76	0.92	0.88	0.83				Growth Rate (Fibroblast; 6 h, replicate number 1): 0.53; Growth Rate (U2OS; 0 h, replicate number 2): -0.24; Growth Rate (U2OS; 6 h, replicate number 1): -0.15
Cc1cc(C(C#N)c2ccc(Cl)cc2)c(Cl)cc1NC(=O)c1cc(I)cc(I)c1O (stereo not given) [CLOSANTEL]	0.76	0.13	0.49	0.84	0.5	0.87	0.89	0.91	-0.74	-1		0.91		0.94		0.87	0.98	0.99	0.61		Growth Rate (HEK-293T; 12 h, replicate number 1): 0.27; Growth Rate (U2OS; 0 h, replicate number 1): 0.36; Growth Rate (U2OS; 0 h, replicate number 2): -1
Clc1ccccc1C(c1ccccc1)(c1ccccc1)n1ccnc1 [CLOTRIMAZOLE]	-0.96		0.62	0.5	0.79	0.54	0.72	0.41	0.29		0.82	0.77	0.97	0.94		0.81		0.76	0.08		Growth Rate (Fibroblast; 0 h, replicate number 1): 0.95; Growth Rate (Fibroblast; 18 h, replicate number 1): 0.54; Growth Rate (Fibroblast; 18 h, replicate number 2): 1; Growth Rate (U2OS; 0 h, replicate number 2): 0.7
COc1c(OCCCN2CCOCC2)ccc2c1N=C(NC(=O)c1cnc(N)nc1)N1CCN=C21 [COPANLISIB]	-1	0.09	-0.34	-0.17	0.12	-0.05	0.18	-0.04		0.1	0.41				0.98	0.9	0.96	0.79		-0.38	Growth Rate (HEK-293T; 12 h, replicate number 1): 0.15; Growth Rate (Fibroblast; 6 h, replicate number 1): -0.21; Growth Rate (Fibroblast; 12 h, replicate number 2): -0.18; Growth Rate (Fibroblast; 18 h, replicate number 1): 0.26; Growth Rate (Fibroblast; 18 h, replicate number 2): 0.04; Growth Rate (Fibroblast; 24 h, replicate number 2): 0.24; Growth Rate (U2OS; 0 h, replicate number 1): -0.44; Growth Rate (U2OS; 6 h, replicate number 1): 0.74
O=c1cccc2n1C[C@@H]1CNC[C@H]2C1 [CYTISINICLINE]			0.9	0.75	0.79	0.92	0.88	0.99		-0.82	0.51		0.79	0.94	0.97	0.99	0.99			-0.4	Growth Rate (HEK-293T; 12 h, replicate number 1): 0.46; Growth Rate (Fibroblast; 12 h, replicate number 2): 0.99; Growth Rate (Fibroblast; 18 h, replicate number 2): 0.88; Growth Rate (Fibroblast; 24 h, replicate number 2): 0.81
O=C(O)Cc1ccc(CCNS(=O)(=O)c2ccc(Cl)cc2)cc1 [DALTROBAN]		0.23	0.8	0.95	0.67		0.72		-0.53		0.99						0.96				Growth Rate (HEK-293T; 12 h, replicate number 1): 0.38
CCn1cnc2c(-c3ccc(F)c(-c4ccc(S(=O)(=O)CC)cc4OC)c3)cnnc21 [DARIGABAT]		-0.79	-0.84	-0.47	-0.38	-0.28	-0.32	-0.18		1	-0.69	-0.7	-0.49	-0.46	-0.16	-0.24	0.01	-0.05		-1	Growth Rate (HEK-293T; 12 h, replicate number 1): -0.63; Growth Rate (Fibroblast; 0 h, replicate number 1): -0.83; Growth Rate (Fibroblast; 12 h, replicate number 2): -0.93; Growth Rate (Fibroblast; 18 h, replicate number 1): -0.97; Growth Rate (Fibroblast; 18 h, replicate number 2): -0.67; Growth Rate (Fibroblast; 24 h, replicate number 2): -0.48; Growth Rate (U2OS; 0 h, replicate number 2): -0.95; Growth Rate (U2OS; 6 h, replicate number 1): -0.92
Cn1c(C2(NC(=O)c3ccc4c(C5CCCC5)c(-c5ncc(Br)cn5)n(C)c4c3)CCC2)nc2ccc(/C=C/C(=O)[O-])cc21.[Na+] [DELEOBUVIR SODIUM]	0.32				0.92	0.81	0.94	0.8	-0.22					0.79		0.92		0.93	0.69	-0.13	
